The test system of data set [1] is D. reticulatum slugs. Put plainly: Leaf disc assay (no choice-feeding bioassay on lettuce leaf discs). The class given is in vivo. The following applies: for amount of lettuce leaf consumed was reduced: solubilisation in aqueous tween 80 (0.5%). The procedure:
Adult D. reticulatum were collected from nearby fields and maintained in plastic trays lined with moist, unbleached, absorbent paper They were housed in the dark and at a constant temperature of 10°±1° C. Slugs were regularly fed on a mixture of iceberg lettuce and carrots. Slugs, with a weight 300-600 mg, were pre-starved for 24 hours and maintained at a constant temperature of 15°±1° C. prior to testing.
The technique described here is a no choice-feeding bioassay using circular discs prepared from lettuce leaves. Selected terpenes were tested against D. reticulatum slugs and evaluated for their repellent/antifeedant and molluscicidal properties.
Lettuce leaf discs (1.4 cm^2) were placed in petri dishes lined with water saturated filter paper ([…] diameter). A known concentration of terpene oil, solubilised in the appropriate media, was prepared and a fixed volume (50 μl) added by pipette, onto individual lettuce leaf discs. Any residual solvent was left to evaporate for a minimum time of 30 iminutes.
Slugs, previously starved for 24 hours, were introduced to the petri dishes and placed in an environmentally controlled chamber (15° C.: 12 hours day, 15° C.: 12 hours night) for 24 hours.
The amount of leaf disc damaged (eaten) was quantified by comparing digital photographs of treated leaf discs with untreated (control) leaf discs, using photographic computer software. The experiment was replicated 20 times for each terpene.
To compare the change in feeding behaviour for different treatments, the leaf damage data was corrected for the control, using the repellency index equation below. [formula]
The antifeedant effect of various media was determined by comparison to untreated leaf discs. A positive R I value indicates a reduction in feeding (antifeedant/repellent) whereas a negative value indicates an increase in feeding behaviour (phagostimulant). Corrections for mortality were done the Abbotts formula (Abbott, 1925). [formula] Bioassay Assay Results: Leaf Disc Assay

The test system of another data set is eggs of D. reticulatum. The following applies: applied at a rate of 4.6 kg/ha; cited from earlier work.
For data set [2], the system named is field slug, D. reticulatum. To be noted: in vivo; cited from earlier work.
A further data set relates to D. reticulatum. Put plainly: Spray trial, lettuce leaves on peat soil (Example 7). The class given is in vivo, Deroceras reticulatum. The following applies: 3% in water, 24 hours. The procedure: To evaluate the efficacy of trans-β-ocimene emulsions using peat substrates lettuce leaves were sprayed with 12 ml of an aqueous ocimene emulsion (3%). Once sprayed the leaves were placed in plastic trays containing peat soil and left for 30 minutes to remove the excess liquid drops. After this time period two adult slugs, previously starved for 24 hours, were added to each plastic tray and left for 24 hours.
A control (water) was treated similarly. Four replicates were prepared for each treatment.
Repellency indices were calculated as described for the leaf disc bioassay.

Data set [3] deals with garden snail H. aspersa. Put plainly: Spray trial with ocimene and bisabolol formulations (Example 8). The class given is in vivo. The following applies: for Repellency Index: RI relative to water. The source says: Example 7 was repeated wherein the lettuce leaves were sprayed with 5% trans-β-ocimene in Tween 20 and the anti-feedant properties tested on the garden snail H. aspersa.
5 and 10% Ocimene and Bisabolol (H. aspersa)

The subject of data set [4] is D. reticulatum slugs. Put plainly: Spray trial (controlled temperature units) monitored over 7 days (Example 9). The following applies: for % Leaf Damage: 5% oil emulsion spray; for % Mortality: 5% spray. The data set is classed as in vivo. The source says:
The same spray trial as in the previous examples was repeated and leaf damage monitored for 7 days.
Spray Trial (Controlled Temperature Units) Monitoring Leaf Damage Over 7 Days (D. reticulatum)
Spray Trial (Controlled Temperature Units) Monitoring Mortality Over 7 Days (D. reticitlatum)

Data set [5] concerns cyprid larvae of the marine barnacle Balanus amphitrite. Put plainly: Barnacle settlement in multi-welled plates, extract evaporated to dryness. The class given is in vivo. The following applies: top two doses, 24 hrs. Here is the method: The settlement of the barnacle Balanus Amphitrite was tested in multi-welled plates in the laboratory. Myrrh and scented Myrrh were extracted in ethanol and 2 ml aliquots from a range of concentrations (50% v/v to 1.5% v/v) were evaporated to dryness in each well of a multi welled plate. Ethanolic trans-β-Ocimene a component of scented Myrrh was also applied in the manner over a range of concentrations (50% v/v to 1.5-% v/v). After evaporation saltwater containing active cyprid larvae was introduced to each well and their settlement and activity measured after 24 hrs.

Data set [6] deals with Balanus amphitrite day 3 cyprids. Put plainly: Barnacle settlement repeated, cyprids incubated in 10^−5-10^−9M. The class given is in vivo. To be noted: after 24 hr. Here is the method:
The barnacle settlement experiments were repeated; however, this time 10 Balanus amphitrite day 3 cyprids were incubated in varying concentrations (10^−5-10^−9M) of trans-β-ocimene at 28° C. in dark conditions. Each concentration was replicated four times, with a control run. The number of cyprids that had settled, still active, floating on the surface meniscus or dead was counted after 24 and 48 hr incubations. Results are expressed as a % of the total cyprid number in each well minus floating cyprids, as these were unable to settle. Values are expressed as mean ±SEM. The amount of settlement at each concentration was compared to the control settlement using an unpaired t-test.

The test system of data set [7] is garden snail H. aspersa. Put plainly: Spray trial with ocimene and bisabolol formulations (Example 8). The data set is classed as in vivo. To be noted: 1% in aq. Tween 20 (1%).

The text below walks through data of patent publication US20070264363A1, “Molluscicidal and Anti-Barnacle Compounds” (priority 2003, published 2007).

The structures appear in SMILES notation. Values joined by “and” are separate entries in the source; they are usually repeats but may differ in a detail not shown here. Identical values can stand only once.

With `C=C1CC/C=C(\C)CC[C@@H]2[C@@H]1CC2(C)C` [Carophyllene], in the data set with D. reticulatum slugs [1] (0.96% in ethanol), the “Corrected Mortality” value came out at 15% and the “Repellency Index” value worked out at 40%.
Regarding `C=C(C)C1CC=C(C)C(=O)C1` (stereo not shown) [Carvone, carvone], the “time to induce death” value in the data set with eggs of D. reticulatum was 2 days. The molluscicidal activity entry in [2] is on record as “potent molluscicides”.
As to `C=C1/C=C/C(C(C)C)CC/C(C)=C/CC1` (stereo not shown) [Germacrene D], in the data set on D. reticulatum slugs [1] (0.4% in ethanol), the “Corrected Mortality” value is reported as 0% and the “Repellency Index” value was 77%.
On to `CC(C)=CCC/C(C)=C/CC/C(C)=C\CO` [cis, trans farnesol], for which, in the data set on D. reticulatum slugs [1] (0.95% in ethanol), the “Corrected Mortality” value amounted to 0% and the “Repellency Index” value came to 77%.
Take `C=C/C(C)=C\CC=C(C)C` [cis-β-Ocimene]: the “Repellency Index” value with D. reticulatum slugs [1] (0.35% in Aq. Tween 80 (0.2%)) is reported as 84%. For the same compound, in the data set with D. reticulatum slugs [1] (in vivo), the “Corrected Mortality” value is listed as 15% and the mortalities result is recorded as “Low”. The “amount of lettuce leaf consumed was reduced” value in the data set on D. reticulatum slugs [1] was 84%.
Consider `CC1CCC(C(C)C)C(O)C1` (stereo not shown) [menthol], for which, in data set [2], the mollusc repellent activity result is reported as “effective mollusc repellents” and the molluscicidal activity result is reported as “potent molluscicides”.
For `CC(C)[C@@H]1CC[C@@H](C)CC1=O` [menthone], the molluscicidal activity result in [2] is listed as “potent molluscicides”.
On to `Cc1ccc(C(C)C)c(O)c1` [thymol], for which the mollusc repellent activity entry in [2] is given as “effective mollusc repellents”.
In the case of `CC(C)=CCC/C(C)=C/CC/C(C)=C/CO` [trans, trans farnesol], the “Repellency Index” value with D. reticulatum slugs [1] (0.96% in ethanol) turned out to be 96%. In addition, the “Corrected Mortality” value with D. reticulatum slugs [1] (in vivo) stood at 0%.
In the case of `C=C/C(C)=C/CC=C(C)C` [trans-β-Ocimene], the “Corrected Mortality” value in the data set on D. reticulatum slugs [1] (0.1% in ethanol) worked out at 0%; in the data set on D. reticulatum slugs [1] (0.22% in Aq. Dmso (10%)), 0%; in the data set on D. reticulatum slugs [1] (0.45% in Aq. Dmso (2.5%)), 20%; with D. reticulatum slugs [1] (0.45% in Aq. Dmso (10%)) it was 70%; in the data set with D. reticulatum slugs [1] (0.45% in Aq. Tween 80 (0.2%)) it was 20%; in the data set with D. reticulatum slugs [1] (0.45% in Aq. Tween 80 (0.5%)), 10%. Also, the “Corrected Mortality” value is reported as 90% with D. reticulatum slugs [1] (0.45% in Water); 0% in the data set on D. reticulatum slugs [1] (0.45% in ethanol, 24 hours); 75% in the data set on D. reticulatum slugs [1] (0.90% in Aq. Dmso (10%)); 5% in the data set on D. reticulatum slugs [1] (0.9% in ethanol); 95% in the data set with D. reticulatum slugs [1] (2.7% in Aq. Dmso (10%)). The “Repellency Index” value with D. reticulatum slugs [1] (0.1% in ethanol) amounted to 5%; with D. reticulatum slugs [1] (0.22% in Aq. Dmso (10%)) it was 2%; in the data set on D. reticulatum slugs [1] (0.45% in Aq. Dmso (2.5%)), 91%; with D. reticulatum slugs [1] (0.45% in Aq. Dmso (10%)), 90%; in the data set on D. reticulatum slugs [1] (0.45% in Aq. Tween 80 (0.2%)), 91%; with D. reticulatum slugs [1] (0.45% in Aq. Tween 80 (0.5%)), 73%. Besides, the “Repellency Index” value was determined as 100% in the data set on D. reticulatum slugs [1] (0.45% in Water); 35% with D. reticulatum slugs [1] (0.45% in ethanol, 24 hours); 92% with D. reticulatum slugs [1] (0.90% in Aq. Dmso (10%)); 95% with D. reticulatum slugs [1] (0.9% in ethanol); 100% with D. reticulatum slugs [1] (2.7% in Aq. Dmso (10%)); 21 in the data set on garden snail H. aspersa [3] (5% in Water). Also, the “Repellency Index” value in the data set on garden snail H. aspersa [3] (5% in aq. Synperonic (0.025%)) was determined as 98; in the data set on garden snail H. aspersa [3] (5% in aq. Synperonic (5%)), 100; in the data set with garden snail H. aspersa [3] (5% in aq. Tween 20 (5%)), 100; with garden snail H. aspersa [3] (10% in Water), 100. The mortalities entry with D. reticulatum slugs [1] (Examples 2 and 4, aqueous tween 80) is listed as “Low”. This compound also showed a slug mortality in the data set with D. reticulatum slugs [1] (pure oil, immediately on contact) of 100%. Besides, in the data set with D. reticulatum slugs [1], the “amount of lettuce leaf consumed was reduced” value was 73%. Also, in the data set on D. reticulatum (12 ml spray, single replicates 1-4), the Leaf damage is 18.69% and 9.33% and 0.00% and 0.99%. The figures for the “Repellency Indices” value in the data set on D. reticulatum and in the data set on D. reticulatum (listed as trans-β-ocimene) were 76.5% and 77%, respectively. The “Mean Leaf damage” value in the data set with D. reticulatum (four replicates) is reported as 7.25%. Further, in the data set on D. reticulatum (peat containers), the mortality entry is reported as “No mortality”. Moreover, the “% Leaf Damage ± SEM” value in the data set on garden snail H. aspersa [3] (5% in Water) is 79 ± 9 NS %; in the data set on garden snail H. aspersa [3] (5% in aq. Synperonic (0.025%)), 2 ± 2 %; in the data set on garden snail H. aspersa [3] (5% in aq. Synperonic (5%)), 0 ± 0 %; in the data set on garden snail H. aspersa [3] (5% in aq. Tween 20 (5%)) it was 0 ± 0 %; in the data set on garden snail H. aspersa [3] (10% in Water), 0 ± 0 %. Also, the “% Mortality ± SEM” value is given as 0% with garden snail H. aspersa [3] (5% in Water); 17 ± 7 % with garden snail H. aspersa [3] (5% in aq. Synperonic (0.025%)); 0% in the data set on garden snail H. aspersa [3] (5% in aq. Synperonic (5%)); 0% with garden snail H. aspersa [3] (5% in aq. Tween 20 (5%)); 5% in the data set on garden snail H. aspersa [3] (10% in Water). Besides, the “% Leaf Damage” value with D. reticulatum slugs [4] (Day 1), in the data set on D. reticulatum slugs [4] (Day 2), with D. reticulatum slugs [4] (Day 3), with D. reticulatum slugs [4] (Day 4), in the data set on D. reticulatum slugs [4] (Day 5) and in the data set on D. reticulatum slugs [4] (Day 6) was 0% each time. In the data set on D. reticulatum slugs [4] (Day 7), the “% Leaf Damage” value came to 0%. The “% Mortality” value in the data set on D. reticulatum slugs [4] (Day 1) is 67%; in the data set on D. reticulatum slugs [4] (Day 2), 80 ± 12%; with D. reticulatum slugs [4] (Day 3) it was 87 ± 7%; in the data set with D. reticulatum slugs [4] (Day 4), 87 ± 7%; in the data set with D. reticulatum slugs [4] (Day 5), 93 ± 7%; in the data set with D. reticulatum slugs [4] (Day 6), 93 ± 7%. In addition, the “% Mortality” value in the data set on D. reticulatum slugs [4] (Day 7) was found to be 93 ± 7%. Moreover, the state of larvae entry in data set [5] was “all floating on the surface but were ‘mutated’”. Besides, the inhibition of settlement entry in data set [6] (10^−5-10^−9M, 28° C., dark) is “inhibition of settlement in a reverse dose-dependent manner”. Further, in data set [6] (lowest concentration (10^−9M)), the “settlement compared to the control (unpaired t-test)” value is on record as “statistically different from the control”.
For the compound `CC(C)=CCC[C@](C)(O)C1CC=C(C)CC1` (stereo partly drawn) [α-bisabolol], the “Repellency Index” value with garden snail H. aspersa [3] (1% in aq. Tween 20 (1%)) turned out to be 90. Further, in the data set on garden snail H. aspersa [3] (in vivo), the “% Mortality ± SEM” value is listed as 0%. Moreover, the “% Leaf Damage ± SEM” value with garden snail H. aspersa [7] is given as 10 ± 0%.
Regarding `C=C/C(C)=C/C/C=C(\C)CCC=C(C)C` [α-farnesene], the “Repellency Index” value with D. reticulatum slugs [1] (0.7% in ethanol) was 60%; in the data set on D. reticulatum slugs [1] (2.7% in ethanol), 97%.
As to `CC1=CCC(C(C)(C)O)CC1` (stereo not drawn) [α-terpineol], the mollusc repellent activity entry in [2] was “effective mollusc repellents”.
`CC(C)=CCC/C(C)=C1/CC=C(C)CC1` [γ-bisabolene]: in the data set with D. reticulatum slugs [1] (0.7% in ethanol), the “Corrected Mortality” value came out at 0% and the “Repellency Index” value is 70%.
